Laboratory results from the NIST ThermoML archive (doi:10.1016/j.tca.2013.05.022).

Tests used:
[1] = relative permittivity at zero frequency (dimensionless); conditions: Liquid, Parallel plate capacitor
[2] = relative permittivity at zero frequency (dimensionless); φn = volume fraction of the nth substance listed; conditions: Liquid, Parallel plate capacitor

CCO [ethanol]
[1], 101 kPa
Conditions	relative permittivity at zero frequency
303 K	24.26
313 K	23.85
323 K	23.25

CCO [ethanol] + Cc1ccccc1
[2], 101 kPa, φ1 = 1
Conditions	relative permittivity at zero frequency
303 K	24.26
313 K	23.85
323 K	23.25

CO [methanol]
[1], 101 kPa
Conditions	relative permittivity at zero frequency
303 K	33.19
313 K	32.35
323 K	31.98

CO [methanol] + Cc1ccccc1
[2], 101 kPa, φ1 = 1
Conditions	relative permittivity at zero frequency
303 K	33.19
313 K	32.35
323 K	31.98

CCCO [propan-1-ol]
[1], 101 kPa
Conditions	relative permittivity at zero frequency
303 K	19.95
313 K	18.65
323 K	17.82

CCCO [propan-1-ol] + Cc1ccccc1
[2], 101 kPa, φ1 = 1
Conditions	relative permittivity at zero frequency
303 K	19.95
313 K	18.65
323 K	17.82

CC(C)O [propan-2-ol]
[1], 307116 kPa
Conditions	relative permittivity at zero frequency
303 K	18.25
313 K	17.75
323 K	16.57

CC(C)O [propan-2-ol] + Cc1ccccc1
relative permittivity at zero frequency, [2], 307116 kPa
Conditions	φ1 = 0.1	φ1 = 0.2	φ1 = 0.3	φ1 = 0.4	φ1 = 0.5	φ1 = 0.6	φ1 = 0.7	φ1 = 0.8	φ1 = 0.9	φ1 = 1
303 K	3.55	4.83	5.98	6.85	8.06	10.1	12.09	14.27	16.36	18.25
313 K	3.12	4.48	5.55	6.45	7.75	9.73	11.75	13.65	15.98	17.75
323 K	3	4.12	5.13	6.15	7.46	9.45	11.24	13.34	15.35	16.57

Cc1ccccc1 [toluene] + CCCO
relative permittivity at zero frequency, [2], 101 kPa
Conditions	φ2 = 0.1	φ2 = 0.2	φ2 = 0.3	φ2 = 0.4	φ2 = 0.5	φ2 = 0.6	φ2 = 0.7	φ2 = 0.8	φ2 = 0.9
303 K	3.28	4.67	6.29	7.59	8.79	11.44	13.76	15.84	18.08
313 K	3.17	4.59	6.18	7.23	8.17	11.18	13.37	15.59	17.87
323 K	2.98	4.42	5.95	6.89	7.88	10.89	13.18	15.29	17.24

Cc1ccccc1 [toluene] + CCO
relative permittivity at zero frequency, [2], 101 kPa
Conditions	φ2 = 0.1	φ2 = 0.2	φ2 = 0.3	φ2 = 0.4	φ2 = 0.5	φ2 = 0.6	φ2 = 0.7	φ2 = 0.8	φ2 = 0.9
303 K	3.97	5.64	7.43	8.29	10.1	12.53	15.27	18.07	21.14
313 K	3.42	5.27	6.34	7.98	9.7	12.26	14.78	17.72	20.78
323 K	2.95	4.91	6.14	7.87	9.2	12.07	14.54	17.28	20.14

Cc1ccccc1 [toluene] + CO
relative permittivity at zero frequency, [2], 101 kPa
Conditions	φ2 = 0.1	φ2 = 0.2	φ2 = 0.3	φ2 = 0.4	φ2 = 0.5	φ2 = 0.6	φ2 = 0.7	φ2 = 0.8	φ2 = 0.9
303 K	5.82	7.85	10.56	12.89	15.86	19.25	22.54	25.91	29.34
313 K	5.03	7.57	10.29	12.66	15.11	18.71	22.17	25.38	28.83
323 K	4.87	6.92	9.82	12.14	14.72	18.27	21.67	24.95	28.42
